Laboratory results: patent publication US10288604B2, “Method for imaging cell using fluorescence-labeled sugar derivative having coumarin derivative bound thereto, and imaging agent” (HIROSAKI UNIVERSITY, priority 2012, dated 2019)

Assays:
Format in all cases: cell-based
[1] = test system: mouse insulinoma cells (MIN6); test: Uptake into MIN6 cells and influence of glucose transport inhibitors (fluorescent microplate reader)
Experimental: Cryopreserved MIN6 cells (cells donated from Professor Miyazaki Junichi of Osaka University and cultured 5 to 8 passages) were subjected to culture according to an ordinary method, and cultures at 7 to 9 passages were used in experiments.
NaCl 129.0 mM, KCl 4.75 mM, KH2 PO4 1.19 mM, MgSO4.7H2O 1.19 mM, CaCl2.2H2O 1.0 mM, NaHCO3 5.02 mM, D-Glucose 5.6 mM, HEPES 10 mM (pH was adjusted to 7.35 with 1M NaOH). For inhibiting entrance and elimination of a fluorescently labeled glucose via gap junction/hemichannel, 0.1 mM Carbenoxolone (SIGMA #C4790) was added. This KRB solution was used as a solution for preparing a 2-PBLG solution.
2-PBDG and 2-PBLG were charged into wells at the third column and the fifth column, respectively, using a 8-channel pipette. Before administration, the autofluorescence of each well was measured beforehand by a fluorescent micro plate reader (Flex Station, manufactured by Molecular Device). The measurement conditions include Bottom Read, Ex 401 nm, Em 453 nm, Cut off 420 nm, Averaging 3, and high sensitivity of Photomultiplier. In the measurement method, Well Scan Mode was used. In Well Scan Mode, the inside of one well was divided into 9 regions of interest (diameter: 1.5 mm) and measurement was performed each independently.
Next, in wells (3C, 3E, 3G) for measuring the effect of a glucose transport inhibitor phloretin, phloretin (final 150 μM) was administered beforehand from 5 minutes prior to administration of 2-PBDG, while KRB was added to other wells (3B, 3D, 3F). Similar operation was also conducted on the fifth column where 2-PBLG was to be administered. 2-PBDG and 2-PBLG were administrated at 37° C. for 10 minutes.
After completion of administration, a diluting operation of the fluorescence solution in the well using 300 μL of a KRB solution was repeated set times each for 30 seconds. The repetition time was determined so that the fluorescence intensity detected by wells of A-th row and H-th row set as a control group was equivalent to the fluorescence intensity of a blank well containing no cell, and complete washout was confirmed in every experiment. In the case of 2-PBDG and 2-PBLG, this washout process needed 8 minutes, thus, measurement of fluorescence after administration was carried out 9 minutes after.
According to this method, even if cells having undergone a loss of the plasma membrane contacted 2-PBDG and 2-PBLG and once took up these compounds into themselves, it is judged that contribution of the increase in the fluorescence intensity to the whole observation area was ignorable level since these compounds had already been washed out of the cells when performing the measurement. This was supported by a pharmacological inhibition experiment separately in which the increase in the fluorescence intensity almost completely disappeared in the presence of an inhibitor. The above-described method was conducted in the same manner also when other inhibitor, for example, cytochalasin B (10 μM) was added.
The change of fluorescence intensity by administration of a D-glucose derivative (2-PBDG), an L-glucose derivative (2-PBLG) and PB—NH2 prepared by amidating Pacific Blue (PB) chromophore group to MIN6 cells on day of 10 of culture and the effect by a glucose transport inhibitor were confirmed in the same manner as in Example 4. PB—NH2 has the following structure (Ex max. 402 nm, Em max. 451 nm).
An experiment was conducted in the same manner as in Example 4.
The experiment was carried out 3 times independently, and the same results were obtained in all cases. In the experiment of administration of 2-PBDM, excitation occurred at a maximum excitation light wavelength of 404 nm and fluorescence was acquired at a maximum emission wavelength of 453 nm.

[2] = test system: neurons acutely dissociated from mouse midbrain substantia nigra pars reticulata; test: Application of fluorescent sugar derivatives to acutely dissociated normal neurons (confocal imaging of uptake); conditions: for increase in fluorescence intensity in the neuron before and after administration: 3 minutes, comparative compounds
Experimental: This was conducted according to a method described in WO 2010/16587.
Living neurons were acutely dissociated from mouse midbrain substantia nigra pars reticulata, and to which a mixed solution containing 100 μM of 2-PBDG and 20 μM of 2-TRLG was administered at 37° C. for 5 minutes. FIGS. 1A to C represent confocal microscopic images taken immediately before this. A is a fluorescence image in blue wavelength region (Blue channel, wavelength range: 415-580 nm). The position of cells is recognized by autofluorescence. The fluorescence signal intensity is represented by pseudocolor. B is a fluorescence image in red wavelength region (Red channel, 580-740 nm). A and B were obtained both by simultaneous excitation using 405 nm Blue diode laser at an intensity of 60%, wherein photomultipliers (PMT) 1 and 2 were used respectively, and the detection sensitivity of PMT2 was raised higher than PMT1 so that the presence or absence of invasion of 2-TRLG can be detected in a sensitive manner. C is a view in which the bright field image is overlaid on the fluorescence images of A and B.
An experiment was conducted in the same manner as in Example 2.
FIGS. 2A to C represent confocal microscopic images immediately before administration of a mixed solution containing 100 μM of 2-PBLG and 20 μM of 2-TRLG at 37° C. to acutely dissociated neurons of mouse midbrain substantia nigra pars reticulata for 5 minutes.
FIG. 3 represents confocal microscopic images before and after administration of a mixed solution containing 100 μM of 2-HCDG and 20 μM of 2-TRLG at 37° C. for 3 minutes to neurons acutely dissociated from mouse midbrain substantia nigra pars reticulata. A and B are fluorescence images acquired before administration in Blue channel (415-580 nm) and Red channel (580-740 nm), respectively. The excitation wavelength is 405 nm. C is an image of differential interference (Differential Interference contrast, DIC). D is an overlay of the above-described images. E to H are the same as A to D, excepting that E to H are images acquired 4 minutes after initiation of washout of the fluorescence tracer solution after administration of the 2-HCDG+2-TRLG fluorescence tracer solution at 37° C. for 3 minutes. […] Since invasion of 2-TRLG into a cell is not observed, the plasma membrane of the neuron is thought to be maintained intactly.
Since the optimal excitation wavelength was as very low as 320 nm in this experiment, an image was acquired by Retiga-2000R CCD camera manufactured by Q-imaging via a custom-order filter constituted of an excitation filter (320 nm) (half width: 40 nm), a fluorescence filter (435 nm) (half width: 40 nm) and a dichroic mirror (409 nm), by a xenon lamp, using Nikon Ti-E real time deconvolution microscope.

[3] = test system: tumor cell cluster composed of mouse insulinoma cells (MIN6); test: Imaging of tumor cell cluster composed of MIN6 cells (real time laser scanning confocal microscope); conditions: mixed solution 100 μM 2-PBLG, 100 μM 2-NBDLG, 20 μM 2-TRLG; MIN6 cluster day 13
Experimental: A culture solution prepared by suspending MIN6 cells at a proportion of 10×10^4 cells/mL was dropped in an amount of 10 μL on a glass cover slip, then, allowed to adhere to the glass surface, and 3 mL of the culture solution was added and cultured. The half quantity of the culture solution was changed every three days.
Cryopreserved MIN6 cells (cells donated from Professor Miyazaki Junichi of Osaka University and cultured 5 to 8 passages) were subjected to culture according to an ordinary method, and cultured 7 to 9 passages which were used in experiments. The half amount of the culture solution was changed every two days.
NaCl 120.0 mM, KCl 4.75 mM, KH2 PO4 1.19 mM, MgSO4.7H2O 1.19 mM, CaCl2.2H2O 1 mM, NaHCO3 5.02 mM, D-Glucose 5.6 mM, HEPES 10 mM (adjusted to pH 7.35 with 1M NaOH). For inhibiting entrance and elimination of fluorescently labeled glucose via a gap junction/hemichannel, 0.1 mM Carbenoxolone (SIGMA #C4790) was added. The HEPES solution for image acquisition was used as a solution for preparing a 2-PBLG solution and as a solution for preparing a 2-PBLG/2-TRLG solution and 2-PBLG/2-NBDLG/2-TRLG solution.
A glass cover slip wherein MIN6 cells had been cultured was transferred into a HEPES solution for image acquisition in a perfusion chamber set on a universal stage (Leica 11600234) on a confocal laser scanning microscope (TCS SP5 available from Leica), and adhered gently and tightly to the glass surface at the bottom of the chamber. […] Further, there is an excellent effect that in the space sandwiched by the metal guides, the perfusion solution flows smoothly as a laminar flow and quick solution exchange is possible.
A perfusion solution feeding system is equipped with one 60 mL cylinder for a control solution and five 10 mL cylinders for agent feeding, which can be switched as needed by a magnetic valve to allow perfusion. In experiments according to the present invention, a 5.6 mM glucose-containing HEPES solution for image acquisition was administered using the 60 mL cylinder and a mixed solution of 2-PBLG/2-NBDLG/2-TRLG, a mixed solution of 2-PBDG/2-TRLG, or a mixed solution of 2-PBLG/2-TRLG was administered using one of the five 10 mL cylinders. As described below, to avoid generation of bubbles in the perfusion chamber, both the solutions were heated beforehand, combined in one tube before being introduced into the perfusion chamber, the flow rate thereof being controlled by a flow rate controller, then, heated again by an inline heater and fed to the perfusion chamber on the confocal microscope.
A laser scan confocal microscope (manufactured by Leica, TCS-SP5 system, microscope body is DMI6000 CS trino electromotive inverted microscope) was used in conventional mode. Regarding laser used, a 405 nm diode laser was used for excitation of 2-PBLG and 2-PBDG, excitation of a mixed solution of 2-PBLG (or 2-PBDG) and 2-TRLG with a single light source, or live staining of nucleus by DAPI. The irradiation intensity was appropriately adjusted in accordance with the fluorescent pigment used so as to obtain sufficient observation intensity by an acoustic optical polarization element (Acoustic Optical Tunable Filter, AOTF). 2-NBDLG and 2-TRLG were excited by 488 nm Argon laser. The scan speed was 200 Hz or 400 Hz.
In fluorescence detection, a photomultiplier detector (PMT) 1 was used for detection of blue fluorescence by 2-PBDG or 2-PBLG and images were acquired in a wavelength detection range set at 415-580 nm in the case of detection of bicolor of 2-PBLG/2-TRLG and in a wavelength detection range set at 415-500 nm in the case of detection of tricolor of 2-PBLG/2-NBDLG/2-TRLG. For detection of green fluorescence by 2-NBDLG, PMT2 (called green channel, the same shall apply hereinafter) was used in a wavelength detection range of 500-580 nm. For detection of red fluorescence by 2-TRLG, PMT3 (called red channel, the same shall apply hereinafter) was used in a wavelength detection range of 580-740 nm. […]

[4] = 100 μM derivative, phloretin 150 μM, MIN6 day 10
[5] = 100 μM with 20 μM 2-TRLG, 37° C.

Structure (SMILES): O=C(NC1C(O)OC(CO)[C@@H](O)C1O)c1cc2cc(F)c(O)c(F)c2oc1=O (stereo partly drawn) [2-PBDM, 2-Deoxy-2-((6,8-difluoro-7-hydroxycoumarin-3-yl)carboxamido)-D-mannose]
- effect of phloretin on increase in fluorescence intensity (in words) [1, 4]: slight but significant inhibitory effect

Structure (SMILES): O=C(NC1C(O)OC(CO)[C@@H](O)C1O)c1cc2ccc(O)cc2oc1=O (stereo partly drawn) [2-HCDG, 2-Deoxy-2-((7-hydroxycoumarin-3-yl)carboxamido)-D-glucose]
- increase in fluorescence intensity in the neuron before and after administration [2, 5]: no increase in the fluorescence intensity is detected

Structure (SMILES): COc1ccc2c(CC(=O)N[C@@H](C=O)[C@@H](O)[C@H](O)[C@H](O)CO)cc(=O)oc2c1 [2-MCDG, 2-Deoxy-2-(2-(7-methoxycoumarin-4-yl)acetamido)-D-glucose]
- increase in fluorescence intensity in the neuron before and after administration [2, 5]: not recognized

Structure (SMILES): O=[N+]([O-])c1ccc(NC2C(O)OC(CO)[C@H](O)C2O)c2nonc12 (stereo partly drawn) [2-NBDLG, 2-[N-(7-nitrobenz-2-oxa-1,3-diazol-4-yl)amino]-2-deoxy-L-glucose, reference compound]
- fluorescence of cells in the cancer cell cluster 8 minutes after completion of administration [3]: difficult to specify these cells only by the fluorescence imaging by 2-NBDLG

Structure (SMILES): O=C(NC1C(O)OC(CO)[C@@H](O)C1O)c1cc2cc(F)c(O)c(F)c2oc1=O (stereo partly drawn) [2-PBDG, 2-Deoxy-2-((6,8-difluoro-7-hydroxycoumarin-3-yl)carboxamido)-D-glucose]
- decreased value of fluorescence intensity owing to phloretin (average) ([1]; 100 μM derivative, 150 μM phloretin, MIN6 day 10, increase without phloretin as reference): 22.4%
- effect of cytochalasin B on increase in fluorescence intensity ([1]; 100 μM derivative, cytochalasin B 10 μM, MIN6 day 10): did not show a significant inhibitory effect
- fluorescence intensity after administration as compared with that before administration ([1]; 100 μM, MIN6 on day 10 of culture, Ex 401 nm, Em 453 nm): increases significantly
- intracellular fluorescence intensity in Blue channel as compared with that before administration ([2]; 100 μM with 20 μM 2-TRLG, 37° C., 5 minutes, image 4 minutes after initiation of washout): increased excepting nucleus
- persistence of intracellular blue fluorescence after washout ([2]; images 8 and 20 minutes after initiation of washout): not easily diminished

Structure (SMILES): NC(=O)c1cc2cc(F)c(O)c(F)c2oc1=O [PB—NH2, reference compound]
- effect of phloretin on increase in fluorescence intensity (in words) [1, 4]: remarkably promoted
- increase in the fluorescence with phloretin compared to when only PB—NH2 is administrated ([1]; 100 μM, phloretin 150 μM, n=3 experiments): 384.1±24.2%
- increase in fluorescence intensity compared with that of 2-PBLG ([1]; 100 μM, same culture plate, MIN6 day 10): significantly larger
